{
  "source": "paper PMC11271627",
  "about": "“Molecular dynamics-guided optimization of BGM0504 enhances dual-target agonism for combating diabetes and obesity” (Scientific Reports, 2024)",
  "key": {"[1]": {"biological_target": "T1, Human GIPR (Homo sapiens, UniProt P48546)", "T1 construct": "expressed in transfected cells; host or cells: CHO cells", "T1 sequence (P48546 22-466)": "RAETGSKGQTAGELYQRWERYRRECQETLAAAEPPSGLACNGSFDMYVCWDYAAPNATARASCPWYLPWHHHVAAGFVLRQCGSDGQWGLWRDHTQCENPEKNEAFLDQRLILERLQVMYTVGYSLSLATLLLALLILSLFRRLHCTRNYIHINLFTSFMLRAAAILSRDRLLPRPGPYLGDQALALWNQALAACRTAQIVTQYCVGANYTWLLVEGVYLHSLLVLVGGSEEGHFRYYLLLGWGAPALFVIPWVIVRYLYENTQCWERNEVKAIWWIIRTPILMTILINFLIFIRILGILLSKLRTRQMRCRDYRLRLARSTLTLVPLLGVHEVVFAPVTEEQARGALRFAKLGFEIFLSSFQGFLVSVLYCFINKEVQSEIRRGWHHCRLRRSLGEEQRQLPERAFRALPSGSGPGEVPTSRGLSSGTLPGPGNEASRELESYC", "assay": "cAMP accumulation assay, GIPR", "format": "cell-based", "experimental": "These cells were then resuspended in 5 mL of the assay buffer, and their concentration was determined using a Vi-Cell Counter. […] Samples were subsequently added to the assay plate along with ECHO555. […] A volume of 10 µL of the cell suspension was added to the assay plate, with a density of 1000 cells/well for GLP-1R testing and 2000 cells/well for GIPR testing. The assay plate was then incubated in a 23°C incubator for 30 minutes. A starting concentration of 800 nM was used to prepare the cAMP standard curve, followed by a 4-fold 10-point serial dilution. These serially diluted cAMP standards were added to the assay plate at a volume of 10 µL/well. Subsequently, 10 µL of the cAMP detection solution was added to the assay plate, and the plate was incubated at room temperature for 1 hour, shielded from direct light. […] For data analysis, each data point’s cAMP level (nM) was calculated using the established cAMP standard curve. The percentage activity for each data point was determined using the formula: % Activity = (cAMP level of testing sample - average cAMP level of low control) / ([…] cAMP level of high control - average cAMP level of […] control) × 100%. Additionally, the ‘log(agonist) vs. response – variable slope’ model in GraphPad Prism 5.0 was used to fit the dose-response curve of each sample and calculate the EC50 value."}, "[2]": {"biological_target": "T2, Human Serum Albumin (HSA) protein (Homo sapiens, UniProt P02768)", "T2 construct": "purified Human ALB (25–609)-His was immobilized", "T2 sequence (P02768 25-609)": "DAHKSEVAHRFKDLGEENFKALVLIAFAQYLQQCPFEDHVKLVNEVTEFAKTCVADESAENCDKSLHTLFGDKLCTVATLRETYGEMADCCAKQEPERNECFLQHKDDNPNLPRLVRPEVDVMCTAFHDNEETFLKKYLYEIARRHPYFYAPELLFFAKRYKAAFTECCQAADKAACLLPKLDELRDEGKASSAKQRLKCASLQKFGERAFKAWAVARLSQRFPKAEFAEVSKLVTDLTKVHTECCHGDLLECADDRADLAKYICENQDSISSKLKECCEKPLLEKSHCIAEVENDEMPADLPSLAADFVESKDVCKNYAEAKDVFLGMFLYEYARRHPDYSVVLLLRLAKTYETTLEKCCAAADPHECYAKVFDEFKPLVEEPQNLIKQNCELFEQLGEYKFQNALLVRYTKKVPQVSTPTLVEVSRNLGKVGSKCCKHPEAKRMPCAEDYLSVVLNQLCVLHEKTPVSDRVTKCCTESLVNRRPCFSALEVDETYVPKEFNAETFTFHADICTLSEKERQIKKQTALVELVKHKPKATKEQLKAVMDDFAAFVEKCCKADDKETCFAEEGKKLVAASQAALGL", "assay": "biochemical", "format": "binding", "source_text": "The buffer used was PBST (PBS with 0.02% Tween 20)."}, "[3]": {"assay": "in vivo", "set-up": "species or system cynomolgus monkeys", "conditions": "cynomolgus monkey", "experimental": "In this trial, 24 cynomolgus monkeys (12 of each sex) were provided by Hainan Jingang Biotechnology Co., Ltd. Each animal was identified using a unique code on the chest and cage box, and its health status was confirmed by the veterinary team of WuXi AppTec Suzhou Drug Development Co., Ltd. before use. Temperature and humidity were monitored in the animal room, with data recorded daily to ensure that the relative humidity was maintained at 40%–70% and the temperature stayed between 18–26°C. The ventilation was set to 10–20 exchanges per hour, and a 12-hour alternating light-dark cycle was adopted. Regular growth feed was provided daily, and the animals had constant access to water. Additionally, the test animals were provided with fruit daily to meet their nutritional needs. The 24 cynomolgus monkeys were randomly divided into four groups, with three monkeys of each sex per group. Animals in group 1 received a single intravenous bolus of 0.1 mg/kg BGM0504, while groups 2, 3, and 4 received a single subcutaneous injection of 0.2, 1, and 5 mg/kg BGM0504 in 20 mM citrate buffer solution (pH=7.0±0.2), respectively. Blood samples for pharmacokinetic (PK) analysis were collected at specific time points (0.5, 1, 4, 6, 8, 12, 24, 48, 72, 96, 120, 168, 240, and 312 hours) before and after dosing. At the same time, blood glucose levels were measured at 0.5, 4, 24, 48, and 72 hours after dosing. The collected blood samples were transferred to labeled commercial tubes containing K2-EDTA (0.85–1.15 mg), gently inverted several times to ensure mixing, and immediately placed on wet ice. Within 60 minutes of blood collection, the samples were centrifuged for 10 minutes at 3200×g at 2°–8°C. Plasma was divided into two aliquots (one for analysis and one for later use), transferred to labeled polypropylene tubes, immediately snap-frozen vertically in dry ice, and stored in an ultra-low temperature freezer at -60°C or lower until transported to the Drug Evaluation Department of WuXi AppTec Shanghai Drug Development Co., Ltd. for LC-MS/MS analysis."}},
  "data": [
    {"smiles": "CC[C@H](C)[C@H](NC(=O)[C@H](CC(C)C)NC(=O)[C@H](Cc1c[nH]c2ccccc12)NC(=O)[C@H](CCC(N)=O)NC(=O)[C@@H](NC(=O)[C@H](Cc1ccccc1)NC(=O)[C@H](C)NC(=O)[C@H](CCCCN)NC(=O)[C@H](CCC(N)=O)NC(=O)[C@H](C)NC(=O)[C@@H](NC(=O)[C@H](CCCCN)NC(=O)[C@H](CC(=O)O)NC(=O)[C@H](CC(C)C)NC(=O)C(C)(C)NC(=O)[C@@H](NC(=O)[C@H](CO)NC(=O)[C@H](Cc1ccc(O)cc1)NC(=O)[C@H](CC(=O)O)NC(=O)[C@H](CO)NC(=O)[C@@H](NC(=O)[C@H](Cc1ccccc1)NC(=O)[C@@H](NC(=O)CNC(=O)[C@H](CCC(=O)O)NC(=O)C(C)(C)NC(=O)[C@@H](N)Cc1ccc(O)cc1)[C@@H](C)O)[C@@H](C)O)[C@@H](C)CC)[C@@H](C)CC)C(C)C)C(=O)N[C@@H](C)C(=O)NCC(=O)NCC(=O)N1CCC[C@H]1C(=O)N[C@@H](CO)C(=O)N[C@@H](CO)C(=O)NCC(=O)N[C@@H](C)C(=O)N1CCC[C@H]1C(=O)N1CCC[C@H]1C(=O)N1CCC[C@H]1C(=O)N[C@@H](CO)C(=O)N[C@@H](CCCCNC(=O)COCCOCCOCCNC(=O)COCCOCCOCCNC(=O)CC[C@H](NC(=O)CCCCCCCCCCCCCCCCCCC(=O)O)C(=O)O)C(N)=O", "note": "[BGM0504]", "values": [
      {"measurement": "EC50", "setting": "[1]", "value": 0.182, "unit": "nM"},
      {"measurement": "Emax", "setting": "[1]; CHO", "value": "106 ± 7.9", "unit": "%"},
      {"measurement": "Kd", "setting": "[2]", "value": 73, "unit": "nM"},
      {"measurement": "AUC(0-inf)", "setting": "[3]; both sexes, iv, 0.1 mg/kg", "value": 81.1, "unit": "µg·h/mL"},
      {"measurement": "AUC(0-t)", "setting": "[3]; both sexes, iv, 0.1 mg/kg", "value": 80.4, "unit": "µg·h/mL"},
      {"measurement": "C0", "setting": "[3]; both sexes, iv, 0.1 mg/kg", "value": "2860 ± 261", "unit": "ng/mL"},
      {"measurement": "Vd", "setting": "[3]; both sexes, iv, 0.1 mg/kg", "value": "0.0608 ± 0.005", "unit": "L/kg"},
      {"measurement": "clearance", "setting": "[3]; both sexes, iv, 0.1 mg/kg", "value": "1.24 ± 0.132", "unit": "mL/h/kg"},
      {"measurement": "half-life", "setting": "[3]; both sexes, iv, 0.1 mg/kg", "value": "37.9 ± 2.5", "unit": "h"},
      {"measurement": "AUC(0-inf)", "setting": "[3]; both sexes, sc, 0.2 mg/kg", "value": 113, "unit": "µg·h/mL"},
      {"measurement": "AUC(0-t)", "setting": "[3]; both sexes, sc, 0.2 mg/kg", "value": 113, "unit": "µg·h/mL"},
      {"measurement": "Cmax", "setting": "[3]; both sexes, sc, 0.2 mg/kg", "value": "1440 ± 109", "unit": "ng/mL"},
      {"measurement": "Tmax", "setting": "[3]; both sexes, sc, 0.2 mg/kg", "value": "16 ± 6.2", "unit": "h"},
      {"measurement": "bioavailability", "setting": "[3]; both sexes, sc, 0.2 mg/kg", "value": 69.7, "unit": "%"},
      {"measurement": "half-life", "setting": "[3]; both sexes, sc, 0.2 mg/kg", "value": "38.7 ± 1.8", "unit": "h"},
      {"measurement": "AUC(0-inf)", "setting": "[3]; both sexes, sc, 1 mg/kg", "value": 491, "unit": "µg·h/mL"},
      {"measurement": "AUC(0-t)", "setting": "[3]; both sexes, sc, 1 mg/kg", "value": 488, "unit": "µg·h/mL"},
      {"measurement": "Cmax", "setting": "[3]; both sexes, sc, 1 mg/kg", "value": "5970 ± 1090", "unit": "ng/mL"},
      {"measurement": "Tmax", "setting": "[3]; both sexes, sc, 1 mg/kg", "value": "22 ± 14", "unit": "h"},
      {"measurement": "bioavailability", "setting": "[3]; both sexes, sc, 1 mg/kg", "value": 60.5, "unit": "%"},
      {"measurement": "half-life", "setting": "[3]; both sexes, sc, 1 mg/kg", "value": "41.7 ± 2.9", "unit": "h"},
      {"measurement": "AUC(0-inf)", "setting": "[3]; both sexes, sc, 5 mg/kg", "value": 2740, "unit": "µg·h/mL"},
      {"measurement": "AUC(0-t)", "setting": "[3]; both sexes, sc, 5 mg/kg", "value": 2720, "unit": "µg·h/mL"},
      {"measurement": "Cmax", "setting": "[3]; both sexes, sc, 5 mg/kg", "value": 33500, "unit": "ng/mL"},
      {"measurement": "Tmax", "setting": "[3]; both sexes, sc, 5 mg/kg", "value": "20 ± 6.2", "unit": "h"},
      {"measurement": "bioavailability", "setting": "[3]; both sexes, sc, 5 mg/kg", "value": 67.6, "unit": "%"},
      {"measurement": "half-life", "setting": "[3]; both sexes, sc, 5 mg/kg", "value": "43.4 ± 5.9", "unit": "h"},
      {"measurement": "Tmax", "setting": "[3]", "value": "16 to 22", "unit": "h"},
      {"measurement": "AUC0-24", "setting": "[3]; iv, 0.1 mg/kg", "value": 34.6, "unit": "µg·h/mL"},
      {"measurement": "AUC0–last (as headed in Table 1)", "setting": "[3]; iv, 0.1 mg/kg", "value": "34,600 ± 2470 ng h/mL"},
      {"measurement": "AUC0–∞ (as headed in Table 1)", "setting": "[3]; iv, 0.1 mg/kg", "value": "80,400 ± 7880 ng h/mL"},
      {"measurement": "AUC0-24", "setting": "[3]; sc, 0.2 mg/kg", "value": 26.1, "unit": "µg·h/mL"},
      {"measurement": "AUC0–last (as headed in Table 1)", "setting": "[3]; sc, 0.2 mg/kg", "value": "26,100 ± 1740 ng h/mL"},
      {"measurement": "AUC0–∞ (as headed in Table 1)", "setting": "[3]; sc, 0.2 mg/kg", "value": "113,000 ± 7940 ng h/mL"},
      {"measurement": "AUC0-24", "setting": "[3]; sc, 1 mg/kg", "value": 109, "unit": "µg·h/mL"},
      {"measurement": "AUC0–last (as headed in Table 1)", "setting": "[3]; sc, 1 mg/kg", "value": "109,000 ± 21,900 ng h/mL"},
      {"measurement": "AUC0–∞ (as headed in Table 1)", "setting": "[3]; sc, 1 mg/kg", "value": "488,000 ± 51,200 ng h/mL"},
      {"measurement": "AUC0-24", "setting": "[3]; sc, 5 mg/kg", "value": 603, "unit": "µg·h/mL"},
      {"measurement": "AUC0–last (as headed in Table 1)", "setting": "[3]; sc, 5 mg/kg", "value": "603,000 ± 94,200 ng h/mL"},
      {"measurement": "AUC0–∞ (as headed in Table 1)", "setting": "[3]; sc, 5 mg/kg", "value": "2,720,000 ± 246,000 ng h/mL"}
    ]}
  ]
}
